Measured values: US10130670B2, “Composition for treating or preventing inflammatory skin disease, comprising, as active ingredient, immature citrus fruit extract, or synephrine or salt thereof” (BIO SPERCTRUM, INC., priority 2013, dated 2018)

Assays:
[1] = system: eotaxin-1; assay: eotaxin-1 reporter gene (luciferase) promoter activity in IL-4 treated fibroblast; type: cell-based; conditions: 10, 100 and 200 μM synephrine; 50 ng/ml IL-4; 24 hours; NIH/3T3
Procedure: Human normal fibroblast (human normal fibroblast, NIH/3T3, department of dermatology in Aju University) was transformed by inserting Eotaxin-1 reporter gene into it with superfect (Quigen Co.), and then cultured in 5% concentration of CO2 cultivator under the condition of 37° C. for 24 hours. And then, the transformed fibroblast was inoculated into 24-well microplate with DMEM media so as to be about 2×10^5 cells per well, and treated with 1, 10, 100 ppm of unripe Citrus unshiu fruit extract, or 10, 100 and 200 μM of synephrine, respectively and then was treated simultaneously with 50 ng/ml of interleukin-4 (R&D, Minneapolis Minn., IL-4) known to induce eotaxin-1, cultivated for 24 hours to collect cells. Then, the collected cells were crushed and reacted with a substrate of luciferase to determine luminescence, and a promoter activity of eotaxin-1 was determined. The results are represented in FIG. 1.

[2] = system: eotaxin-1; assay: extracellular secretion of eotaxin-1 by ELISA in IL-4 treated fibroblast; type: cell-based, human; conditions: 10, 100 and 200 μM synephrine; 50 ng/ml IL-4; 24 hours; NIH/3T3
Procedure: Human normal fibroblast (human normal fibroblast, NIH/3T3, department of dermatology in Aju University) was inoculated into 24-well microplate with DMEM media so as to be about 2×10^5 cells per well, and cultured in 5% concentration of CO2 cultivator under the condition of 37° C. for 24 hours. And then, it was treated with 1, 10, 100 ppm of unripe Citrus unshiu fruit extract, or 10, 100 and 200 μM of synephrine, respectively and then was treated simultaneously with 50 ng/ml of interleukin-4 (R&D, Minneapolis Minn., IL-4), cultivated for 24 hours to collect cell culture media. And then, the degree of secretion of eotaxin-1 was determined by using ELISA kit. The results are represented in FIG. 2.

[3] = system: eotaxin-1 mRNA; assay: eotaxin-1 mRNA expression by quantitative Real-time PCR in IL-4 treated fibroblast; type: cell-based, human; conditions: 10, 100 and 200 μM synephrine; 50 ng/ml IL-4; 24 hours; NIH/3T3
Procedure: Human normal fibroblast (human normal fibroblast, NIH/3T3, department of dermatology in Aju University) was inoculated into 24-well microplate with DMEM media to be about 2×10^5 cell per well, and cultured in 5% concentration of CO2 cultivator under 37° C. for 24 hours. And then, it was treated with 1, 10, 100 ppm of unripe Citrus unshiu fruit extract, or 10, 100 and 200 μM of synephrine, respectively and then was treated simultaneously with 50 ng/ml of interleukin-4 (R&D, Minneapolis Minn., IL-4), cultivated for 24 hours to collect cell culture media. After extracting tRNA from the collected cells, a complementary DNA (cDNA) was synthesized based on the extracted tRNA and then, a quantitative Real-time PCR was performed by using the synthesized complementary DNA as a template to determine the degree of expression for mRNA of eotaxin-1. The results are represented in FIG. 3.

[4] = system: STAT6; assay: STAT6 phosphorylation by Western blot in IL-4 treated fibroblast; type: cell-based, human; conditions: 10, 100, 200 ppm synephrine for 60 minutes, then 50 ng/ml IL-4 for 20 minutes; NIH/3T3
Procedure: Human normal fibroblast (human normal fibroblast, NIH/3T3, department of dermatology in Aju University) was inoculated into 24-well microplate with DMEM media so as to be about 2×10^5 cells per well, and cultured in 5% concentration of CO2 cultivator under the condition of 37° C. for 24 hours. And then, it was treated with 10, 100, 200 ppm of synephrine for 60 minutes, respectively and then 50 ng/ml of IL-4 was treated to cultivate for 20 minutes. Then, the cells were collected to dissolve and then determine the degree of phosphorylation inhibition of STAT6 through Western blot. The results are represented in FIG. 3.

[5] = system: STAT6; assay: translocation of STAT6 into the nucleus, confocal microscopy; type: cell-based; conditions: 200 μM synephrine for 60 minutes, then 50 ng/ml IL-4 for 24 hours; NIH/3T3
Procedure: Human normal fibroblast (human normal fibroblast, NIH/3T3, department of dermatology in Aju University) was inoculated into 24-well microplate with DMEM media so as to be about 2×10^5 cells per well, and cultured in 5% concentration of CO2 cultivator under the condition of 37° C. for 24 hours. And then, it was treated with 200 μM of synephrine for 60 minutes, respectively and then was treated with 50 ng/ml of IL-4 to cultivate for 24 hours. And then, the cells was immobilized with paraformaldehyde (PFA) and treated with the primary antibody specifically reacting with STAT6. […] The results are represented in FIG. 5.

[6] = system: eosinophil; assay: eosinophil transmigration in co-cultivation with IL-4 treated fibroblast; type: cell-based; conditions: 10, 100 and 200 μM synephrine; 50 ng/ml IL-4; 24 hours
Procedure: Human normal fibroblast (human normal fibroblast, NIH/3T3, department of dermatology in Aju University) was inoculated into 24-well co-cultivation plate with DMEM media so as to be about 2×10^5 cells per well, and cultured in 5% concentration of CO2 cultivator under the condition of 37° C. for 24 hours. And then, it was treated with 10, 100 and 200 μM of synephrine for 60 minutes, respectively and then 50 ng/ml of IL-4 was treated to induce the expression of eotaxin-1. Simultaneously, eosinophil was inoculated and cultivated for 24 hours. After the cultivation, the transmigration degree of eosinophil moved through the membrane to bottom of the plate was determined. The determination was measured via a fluorescence staining by using CytoSelect™ 24-Well Cell Migration Assay kit (Cell biolabs, INC., USA). The results are represented in FIG. 6.

[7] = system: human skin; assay: accumulated patch test for safety to the human skin; type: in vivo; conditions: for Mean reaction degree: 30 adults, 9 patches, less than 3 = safe
Procedure: In order to identify as to whether the unripe Citrus unshiu fruit extract or synephrine isolated from the unripe Citrus unshiu fruit is safe or not, the skin external preparation based on squalene wherein 1, 10 and 100 ppm of the unripe Citrus unshiu fruit extract prepared in Example 1 were added, was prepared, and the skin external preparation wherein 10, 150 and 300 ppm of synephrine of Example 2 were added, were prepared, respectively.
Then, the skin external preparations were applied as a patch to areas of humerus of 30 adults for accumulated 24 hours on alternate day in total 9 times to test as to whether synephrine stimulates the skin. The control used the skin external preparation based on squalene wherein the unripe Citrus unshiu fruit extract or synephrine was not comprised.
The patch used Finn chamber (Epitest Ltd, Filand) and the patch was practiced after dropping with 15 μl of the skin external preparations prepared from the above, respectively. The degree of the reaction represented on the skin in every time was scored by using the below experimental formula 1. Mean reaction degree=[{(reaction index×reaction degree)/(total number of the subject×the highest score (four point))}×100]/times of the test [Experimental Formula 1]
At this time, in the reaction degree, ± represents 1 score (point), + represents 2 score and ++ represents 4 score,
When the mean reaction degree is less than 3, it is considered as being the safe composition.

[8] = system: children of atopy patients; assay: effect for improving atopy of cream, EASI score; type: in vivo, human; conditions: for EASI score (5 = no improvement, 0 = many improvements): cream 0.03 or 0.01% by weight, twice per day, 30 children
Procedure: Creams comprising the unripe Citrus unshiu fruit extract or synephrine isolated from it, having the ingredients and contents shown in below Table 2 were prepared. Specifically, aqueous phase, the purified water, triethanolamine and propylene glycol were heated to 70° C. to dissolve them, and then to it added the liquid in which oil phase, fatty acid, oily component, emulsifier and preservative were heated to 70° C. to dissolve them and stirred with homomixer (Tokushu Kika Ltd., Japan) to emulsify them. After the emulsifying them was completed, the said solution was cooled to 45° C., 0.03% by weight or 0.01% by weight of the unripe Citrus unshiu fruit extract or synephrine based on the total weight of the composition was added, dispersed and then cooled to 30° C.
Cream comprising 0.03 or 0.01% by weight of the unripe Citrus unshiu fruit extract or synephrine isolated from it, prepared according to the method of 10-1 as above was used for 30 children of atopy patients twice per day for 4 weeks. The control used the cream comprising the purified water instead of the unripe Citrus unshiu fruit extract or synephrine.
The effect improving atopy was determined by using Eczema Area Severity Index (EASI) score, the determination criterion was set as 5 for the case that there is no improvement of atopy, and 0 for the case that there are many improvements of atopy and the relative values were compared.

For CNCC(O)c1ccc(O)cc1 (stereo not drawn) [synephrine, 4-[1-hydroxy-2-(methylamino)ethyl]phenol], the “promoter activity of eotaxin-1 derived by IL-4” value [1] was “reduced”, the “extracellular secretion of eotaxin-1 derived by IL-4” value [2] was “reduced” and the “expression of mRNA of eotaxin-1 derived by IL-4” value [3] was “reduced”. For the same compound, the “phosphorylation of STAT6 derived by IL-4” value [4] was “effectively inhibits”, the “translocation of STAT6 derived by IL-4 into the nucleus” value [5] was “inhibits” and the “movement of eosinophil derived by eotaxin-1 expressed from the treatment of IL-4” value [6] was “inhibits”. The “skin reaction in the patch test” value ([7]; 10, 150 and 300 ppm, all test groups, all 9 patches) was “did not represent the skin reaction”, the Mean reaction degree ([7]; 10 ppm in squalene-based skin external preparation) was 0.00 and the Mean reaction degree ([7]; 150 ppm in squalene-based skin external preparation) was 0.00. The Mean reaction degree ([7]; 300 ppm in squalene-based skin external preparation) was 0.00, the “safety to the human skin, judged from mean reaction degree” value ([7]; all tested concentrations, mean reaction degree less than 3 = safe) was “safe material” and the “EASI score (5 = no improvement, 0 = many improvements)” value ([8]; 1st week) was 2.82. The “EASI score (5 = no improvement, 0 = many improvements)” value ([8]; 2nd week) was 1.51, the “EASI score (5 = no improvement, 0 = many improvements)” value ([8]; 4th week) was 0.63 and the “EASI score compared to the control” value ([8]; cream used for 4 weeks) was “reduced compared to the control”.
